Data as given in patent publication US10344037B2, “Use of the FL-one hundred eighteen core chemical structure platform to generate FL-one hundred eighteen derivatives for treatment of human disease” (priority 2014, dated 2019).

Key:
survivin promoter = experiment: Survivin promoter-luciferase activity assay; format: cell-based, human
Procedure: Cancer cells are seeded in 48-well plates at about 50% confluent overnight in complete cell culture medium. Cells are either stably transfected with the pLuc-4080 survivin promoter-luciferase construct or transiently transfected with relevant luciferase reporter vectors. For transient transfection, 245 ng of targeting luciferase reporter construct plus 5 ng of internal control vector, pRK-tk in 30 μl serum-free DMEM, is mixed in a 1.5 ml tube containing 30 μl serum-free DMEM containing 0.4 μl Lipofectamine™ 2000. After incubation at room temperature for 20-25 minutes, the DNA/Lipofectamine complex is added to each well of 48-well plates, which already contain 300 μl corresponding complete growth medium in each well. […] Cells are further incubated for an additional 24-48 hours in a normoxia and/or hypoxia condition, followed by processing luciferase assays. For luciferase assay, a Dual-Luciferase Reporter Assay System (Promega) is used. Cells in 48-well plates are washed with PBS and lysed with 80 μl 1× passive lysis buffer on a shaker for up to 1 hour at 4° C. Twenty μl cell lysate per well is used to measure the Firefly and Renilla luciferase activity in triplicates in a Luminometer by subsequently adding 20 μl luciferase assay reagent and 20 μl Stop-Glo reagent. […]

HIF-1α = experiment: Western blot for HIF-1α expression under hypoxia in FaDu cells; format: cell-based, human; conditions: 36 h
p53 = experiment: Western blot for p53 expression in colon cancer cells with wild type p53; format: cell-based, human
Procedure: Actin is an internal control for total protein loading.
After the lysates are cleared by centrifugation at 15,000 g for 20 minutes at 4° C., the total protein is determined using Bio-Rad protein assay solution. Up to 50 μg of total protein is denatured in 2×SDS sample loading buffer for 5 minutes at 95° C., separated on 10-15% SDS-PAGE gels, and electrotransferred to the Pure Nitrocellulose Membrane (Bio-Rad, Hercules, Calif.) using semi-dry electrophoretic transfer. After the nonspecific binding sites on the membranes are blocked with 5% skim milk in TBS-T (20 mM Tris-HCl pH 7.5, 0.137 M NaCl, and 0.01% Tween 20) for 3 hours at room temperature with constant shaking, the membranes are incubated in TBS-T containing the relevant primary antibody (1: 500-1000) and 5% BSA overnight at 4° C. After washing with TB S-T three times, the membrane is incubated in 5% skim milk in TBS-T buffer containing the appropriate secondary anti-IgG antibody (1:5000) at room temperature for 1 h with constant shaking. The protein of interest is detected using Western Lightning®-ECL (Perkin Elmer, Waltham, Mass.) and visualized by exposure for various times (5-60 seconds). […]

ABCG2 in HCT116-A2 cells = experiment: Growth inhibition after ABCG2 shRNA silencing; format: cell-based, human; conditions: 72 hours
Procedure: Actin is internal control. B and C. […] Cells at sub-confluence are infected with lentiviral particles containing nonsense shRNA (ns), or AGCG2-specific shRNA (sh1, sh2) to silence ABCG2 expression in the cells. […] Viability for each dose was determined using a ViCELL XR cell viability analyzer and normalized to that of DMSO control. Error bars=SEM, n=3 independent experiments. Data are plotted graphically and EC50 values are calculated using GraphPad Prism 6.0.

HCT-8 cells = experiment: Colony formation after 2 h or 6 h drug treatment; format: cell-based, human; conditions: 2 h or 6 h treatment, 2 weeks growth
Procedure: Subconfluent SW620, HCT-8, and HCT-116 cells were lysed and analyzed for the expression of MDR1 and ABCG2 using western blots (WB). Actin is the internal control. […] Cell growth/viability was then analyzed by MTT assays. Each time point in the individual curve is the mean±SD from 3 to 5 independent assays. […] Drugs were then washed out and cells were allowed to grow in new medium without drugs for 2 weeks. Cell colonies were stained with crystal violet solution; images were digitally taken. Triplicate results are shown.
(§1) Cell growth is then measured and the data are plotted as percentage of growth inhibition (no drug treatment was set at 0%). […] C. […] Representative cancer cell images were taken with a digital camera under phase-contrast microscope.

HCT-8 colon cancer cells = experiment: Cell growth inhibition, 72 hours; format: cell-based, human; conditions: HCT-8 cells
Procedure: as §1

[1] = tested on: FaDu head-&-neck and SW620 CRC tumor xenografts; experiment: Xenografts with acquired irinotecan or topotecan resistance; format: in vivo, SCID mice; conditions: FL118 1.5 or 1 mg/kg IP q2d×5
Procedure: (§2) Individual tumor curves derived from individual mice are shown. A. Mice with FaDu head-&-neck tumor xenografts were first treated with irinotecan at its maximum tolerated dose (MTD, 100 mg/kg, IP) weekly for 4-5 times (black arrow). […] B. Mice with FaDu tumor xenografts were first treated with topotecan at its MTD (4 mg/kg, IP) via daily×5 schedules for 4 cycles (each black arrow is one cycle). […] C. Mice with SW620 CRC xenografts were first treated with irinotecan at its MTD (IP, weekly×4, black arrow). […] D. Mice with SW620 xenograft tumors were first treated with topotecan at its MTD.

in vivo = conditions: weekly×4
Procedure: as §2

[2] = tested on: colorectal cancer PDX (11124, 14528); experiment: Colorectal cancer patient-derived xenografts (PDX); set-up: species or system SCID mice; conditions: mouse, in vivo
Excerpt: Individual PDX were subcutaneously inoculated into SCID mice. […] Individual PDX tumor curves derived from individual mice are shown. […] Two examples of colorectal cancer PDX (11124, 14528) are shown.

[3] = tested on: pancreatic cancer PDX tumors (12872, 12914, 14244, 17624, 19015); experiment: Pancreatic cancer patient-derived xenografts (PDX); set-up: species or system SCID mice; conditions: mouse, in vivo
[4] = tested on: human umbilical vein endothelial cells (HUVECS); experiment: Cell growth and viability, MTT; format: cell-based; conditions: 72 hours
cancer cells = experiment: Cell growth and viability, MTT; format: cell-based, human; conditions: 72 hours
Procedure: Actin is an internal control for equal protein loading. […] Subconfluent cancer cells as shown are treated with a series of concentrations of crolibulin as shown (0-100 μM) for 72 hours. Cell growth and viability are determined via MTT assay. Each curve is the mean±SD from 4 independent assays.
Crolibulin is an anticancer drug that targets endothelial cells of the cancer vasculature system. Therefore, crolibulin is considered as a vascular disrupt agent (VDA).

[5] = tested on: human proteins (MARK3, DDI1, TPD52L2, CACNB1, PGPCR1, USP2, MC2R, FGF18, TP53I3, CNBP, WDR22, PVGCSE-M1, UBE2T, ULP7, RBMS2, BMX, CCNB1IP1); experiment: Protein microarray (ProtoArray) with FL118 as a probe; format: binding; conditions: over 9,000 human proteins
Excerpt: These targets include, but not limited to, MAP/microtubule affinity-regulating kinase 3 (MARK3), DNA-damage inducible 1 (DDI1), tumor protein D52-like 2 (TPD52L2), calcium channel, voltage-dependent, beta 1 subunit (CACNB1), Probable G-protein coupled receptor 1 (PGPCR1), ubiquitin specific peptidase 2 (USP2), melanocortin 2 receptor (MC2R), Fibroblast growth factor 18 (FGF18), tumor protein p53 inducible protein 3 (TP53I3), CCHC-type zinc finger, nucleic acid binding protein (CNBP), WD repeat domain 22 (WDR22), Potassium voltage-gated channel subfamily E member 1 (PVGCSE-M1), ubiquitin-conjugating enzyme E2T (putative) (UBE2T), Ubiquitin-like protein 7 (ULP7), RNA binding motif, single stranded interacting protein 2 (RBMS2), Cytoplasmic tyrosine-protein kinase (BMX), and cyclin B1 interacting protein 1 (CCNB1IP1).

HdmX, Hdm2 = experiment: HdmX and Hdm2 protein and mRNA levels in HCT-8 cells
Procedure: Rescue of HdmX degradation by proteasome inhibitor MG132. […] Cell lysates are then analyzed by immunoblotting of HdmX. Actin expression is used as an internal control.

Excerpt for FaDu and SW620 tumors: Three types of human cancer xenografts are used in the studies: 1) from human head-&-neck cancer cell line (FaDu)-established xenografts; 2) from human colon cancer cell line (SW620)-established xenografts; and 3) from human acute lymphocytic leukemia cell line (EU-4)-established xenografts. All in vivo experiments use either nude or severe combined immunodeficiency (SCID) mice. Human tumor cell line-derived xenografts are initially established by subcutaneously injecting 1×10^6 cultured cancer cells. The derived tumors are then passed several generations in mice by transplanting 40-50 mg non-necrotic tumor mass via a trocar after the xenograft tumor reached ˜1000 mm^3. Treatment is initiated 7 days after tumor transplantation when the tumor reached 200-250 mm^3, at which time the treatment was designated as Day 0. Six to 12-week-old female SCID mice used in the studies. All animal experiments are performed in accordance with IACUC-approved animal protocols. Mice were housed 5 mice per cage with water and food ad libitum.

In the case of `CC[C@@]1(O)C(=O)OCc2c1cc1n(c2=O)Cc2cc3cc4c(cc3nc2-1)OCO4` [FL118], the “concentration that can effectively inhibit survivin promoter activity” value (survivin promoter) is reported as 1 to 10 nM, the “hypoxia-induced survivin promoter activity” value (survivin promoter; HCT116 cells with full-length survivin promoter-luciferase, 24 h, hypoxia) is reported as “abrogated by FL118 treatment” and the “hypoxia-induced HIF-1α expression” value (HIF-1α) is reported as “abrogated by FL118 treatment”. The p53 protein expression (p53) was “strong and rapid induction of p53 expression”, the “effect of silencing of ABCG2 on cell growth inhibition” value (ABCG2 in HCT116-A2 cells) was “shows no effect to FL118” and the “more effective to inhibit colony formation than topotecan” value (HCT-8 cells) was > 100 time. For the same molecule, the “more sensitive to colon cancer cells than topotecan” value (HCT-8 colon cancer cells) was “at least 25 time”, the “effect on tumors with acquired irinotecan and topotecan resistance” value [1] was “effectively regressed” and the MTD (in vivo; IV injection) was 5 mg/kg. The body weight loss (in vivo; oral administration) was “Minimal Body Weight Loss”, the MTD (in vivo; oral) was 10 mg/kg and the “antitumor activity on the same PDX on different mice” value [2] was “very similar antitumor activity to the same tumor on different SCID mice”. The “efficacy on different PDX tumors of the same type” value [3] was “much different efficacy to different tumors of the same type”, the “sensitivity of HUVEC cells” value [4] was “insensitive to FL118 treatment” and the “sensitivity of cancer cells” value (cancer cells) was “sensitive to FL118 treatment”. For the same molecule, the biochemical targets identified [5] was “Revealed Novel FL118 Biochemical Targets”, the mouse deaths (FaDu and SW620 tumors; large tumors, stored FL118 solution, attributed to possible Tumor Lysis Syndrome) was “death of two mice on Day 37” and the “antitumor activity of stored solution” value (FaDu and SW620 tumors; ready-to-use solution stored at 4° C. for 6 months, 1.5 mg/kg weekly for 4 weeks) was “as effective as the newly formulated solution”. The “mRNA levels of HdmX and p21 (quantitative real time PCR)” value (HdmX, Hdm2; FL118 treatment for 8 h) was “does not significantly alter the mRNA levels of HdmX but increases the control gene p21 mRNA levels”, the “time to HdmX downregulation after treatment” value (HdmX, Hdm2; HCT-8 cells, 100 nM, time course) was ≤ 4 h and the “proteasomal degradation of HdmX and Hdm2” value (HdmX, Hdm2; HCT-8 cells, 10 and 100 nM) was “promotes proteasomal degradation of HdmX but not Hdm2”.
